Measurements published in US20210330611A1, “THERAPY FOR NEUROLOGICAL DISEASES/DISORDERS” (priority 2020, published 2021).

Assays:
[1] = cited from earlier work
neuronal viability = details: similar concentration range; cited from earlier work
naïve CD4+ T cells = assay: Non-antigen-specific T-cell proliferation (anti-CD3/CD28); type: cell-based, mouse; details: 5, 0.5 or 0.05 μM, FIG. 14G, H
Method: T-cell proliferation assay. For antigen-specific T cell proliferation, näive CD4+ T cells were magnetically sorted from the TCR-transgenic 2D2 mice using naïve CD4+ T cell isolation kits (Miltenyi Biotec). […]. For non-antigen-specific T cell proliferation, naïve CD4^+ T cells were treated with acivicin and stimulated with mouse T-activator CD3/CD28 Dynabeads (Thermo Fisher Scientific) for 3 d. Cells were then fixed, permeabilized, and stained with FITC-conjugated anti-BrdU (BrdU Flow Kits, BD Biosciences).

microglia = type: in vivo, mouse; details: healthy mice, 14 days, FIG. 12
Method: FIGS. 12A-E. Effects of acivicin on microglia, macrophage and whole blood cell numbers. a, Representative images showing morphology and density of primary microglia treated with vehicle or acivicin for 48 h stained with nuclei marker Hoechst or CellMask Red Whole Cell Stain. Quantification of the total number of microglia. Data are representative of one experiment with technical replicates (open symbols). b, Representative confocal images showing morphology and density of control- and acivicin-treated BMDMs treated for 24 h. Scale bar, 100 μm. Insets depict digitally zoomed in areas of regions of interest. Quantification of the total number of BMDMs in the field of view. […] Cell viability of single CD45^+ cells was assessed by Sytox blue live/dead nuclei stain. Quantification of percent cell viability of CD45^+ BMDMs treated with acivicin or left untreated. Data are from 2 independent experiments with n=4 mice per group (mean±s.d.). d, Quantification of complete blood count analysis of white blood cells (WBCs), red blood cells (RBC), platelets (PLT) (left) and composition of WBCs (right) of blood samples from healthy mice treated with saline or acivicin for 10 days. […] Quantification of total microglia cell numbers in healthy mice treated with acivicin or saline. […]

MOG35-55 EAE [2] = assay: Active MOG35-55 EAE, clinical scores; type: in vivo, mouse; details: mouse, in vivo, 5 mg/kg
adoptive transfer EAE = assay: Adoptive transfer EAE induced by PLP139-151-specific T cells, clinical scores; type: in vivo, mouse; details: prophylactic, 5 mg/kg daily from day 0, FIG. 7d
MOG35-55 EAE [3] = assay: Immunohistochemistry of spinal cord lesions in MOG35-55 EAE mice; type: in vivo, mouse
[4] = test system: PLP139-151 EAE in SJL/J mice; assay: Relapsing PLP139-151 EAE in SJL/J mice, clinical scores; type: in vivo, mouse; details: therapeutic, daily from peak of initial paralytic episode, FIG. 7c
GGT = GGT activity in substantia nigra after stereotactic LPS injection; type: in vivo, mouse; details: 5 mg/kg i.p., 12 h after LPS, FIG. 15a
Method: Stereotactic LPS injection and drug treatment. Mice were anaesthetized with isoflurane and placed in a stereotactic apparatus (David Kopf Instruments). LPS (Sigma-Aldrich) was dissolved in endotoxin-free distilled water (HyClone) and was diluted to 1 μg/ml with PBS. LPS (2 μl of 1 μg/ml) or PBS was slowly injected (0.3 μl/min) using a 10-μl Hamilton syringe attached to a 33-G needle into the substantia nigra at coordinates (anteroposterior, 3.0 mm; mediolateral, 1.3 mm; dorsoventral, 4.7 mm from the bregma, according to Paxinos and Watson) Animals received acivicin (5 mg/kg) or saline intraperitoneally beginning 5 days before LPS injection and for 7 days after LPS injection. After 12 h of the LPS injection, the substantia nigra area was immediately collected on ice and kept at −80° C. for later analysis of GGT activity. After 7 d of the LPS injection, mice were perfused with 4% PFA, and the brains were post-fixed in 4% PFA overnight at 4° C. […] Images were acquired with all-in-one BZ-X700 fluorescence microscope. Images were quantified using NIH ImageJ (version 1.50) by blinded observers.

in vitro = details: rat, Cell Toxicity IC50 (uM) [cFib assay], cFib assay

In the case of `N[C@H](C(=O)O)[C@@H]1CC(Cl)=NO1` [Acivicin, (2S)-2-amino-2-[(5S)-3-chloro-4,5-dihydro-1,2-oxazol-5-yl] acetic acid], the “toxicity in anti-cancer trials” value [1] is given as “dose limiting toxicity”, the neuronal viability (neuronal viability) is given as “does not affect” and the “T cell proliferation (BrdU) without APCs, anti-CD3 and anti-CD28” value (naïve CD4+ T cells) is given as “only in the presence of APCs”. The “microglia numbers in the spinal cord in vivo” value (microglia) was “did not affect”, the “disease onset and severity” value (MOG35-55 EAE [2]) was “delayed” and the “disease onset and severity” value (adoptive transfer EAE) was “delayed”. The “demyelination (MBP)” value (MOG35-55 EAE [3]; FIG. 7i) was “markedly reduced”, the “neuronal damage (SMI-32)” value (MOG35-55 EAE [3]; FIG. 7i) was “markedly reduced” and the “microglia activation (CX3CR1+ cells)” value (MOG35-55 EAE [3]; FIG. 7j) was “markedly reduced”. The “monocyte/macrophage infiltration (CCR2+ cells)” value (MOG35-55 EAE [3]; FIG. 7j) was “markedly reduced”, the “4-hydroxynonenal (4-HNE) immunostaining” value (MOG35-55 EAE [3]; spinal cord, peak disease, FIG. 7f) was “markedly reduced” and the “clinical severity during relapses” value [4] was “suppressed”. The “GGT activity in SN after LPS injection” value (GGT) was “blocked” and the IC50 (in vitro) was over 20 µM.
